{
  "source": "patent US20230322761A1",
  "about": "“DEGRADATION OF BRUTON'S TYROSINE KINASE (BTK) BY CONJUGATION OF BTK INHIBITORS WITH E3 LIGASE LIGAND AND METHODS OF USE” (BEIGENE, LTD., priority 2020, published 2023)",
  "biological_target": "T1, BTK (Homo sapiens, UniProt Q06187)",
  "T1 construct": "endogenous in cells; host or cells: TMD-8 cells",
  "T1 sequence (Q06187 whole entry)": "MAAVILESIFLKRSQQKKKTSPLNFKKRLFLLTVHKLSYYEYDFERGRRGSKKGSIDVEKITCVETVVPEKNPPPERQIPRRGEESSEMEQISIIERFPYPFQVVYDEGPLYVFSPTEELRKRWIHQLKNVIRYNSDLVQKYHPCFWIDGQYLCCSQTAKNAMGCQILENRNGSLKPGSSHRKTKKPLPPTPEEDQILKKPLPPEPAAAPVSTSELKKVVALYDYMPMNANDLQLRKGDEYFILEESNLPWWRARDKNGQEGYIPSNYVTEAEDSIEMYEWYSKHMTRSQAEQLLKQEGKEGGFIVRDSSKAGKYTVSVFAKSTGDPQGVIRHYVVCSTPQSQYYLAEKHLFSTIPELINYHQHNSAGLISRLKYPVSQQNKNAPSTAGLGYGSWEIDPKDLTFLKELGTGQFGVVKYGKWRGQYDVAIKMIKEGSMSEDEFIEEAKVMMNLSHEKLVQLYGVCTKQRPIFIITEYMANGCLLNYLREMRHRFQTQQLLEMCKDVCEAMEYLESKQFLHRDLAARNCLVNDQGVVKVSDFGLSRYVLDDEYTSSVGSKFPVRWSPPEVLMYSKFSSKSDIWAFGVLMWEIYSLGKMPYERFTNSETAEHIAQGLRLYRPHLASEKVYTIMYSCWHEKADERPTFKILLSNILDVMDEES",
  "assay": "BTK degradation in TMD-8 cells, HTRF assay after 6 h treatment",
  "format": "cell-based",
  "conditions": "for DC50: IC50 (DC50) of BTK degradation; for Dmax: TMD8, maximum percentage of inhibition (degradation)",
  "summary_of_the_method": "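Remaining BTK was quantified by HTRF in lysates of TMD-8 cells after 6 h exposure to an 8-point, 6-fold compound series (500× stocks in DMSO starting at 1 mM; 0.2% DMSO). Lysis 30 min, antibodies overnight at room temperature, ratio read at 665/620 nm; DC50 fitted with a four-parameter logistic equation.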",
  "note": "Structures can show the parent of a compound that is named as a salt.",
  "data": [
    {"smiles": "Cc1cc(-c2n[nH]c3ncc(-c4ccc(N5CCN(CCc6ccc(NC7CCC(=O)NC7=O)cc6)CC5)cc4)cc23)ccc1[C@@H](C)NC(=O)c1noc(C(C)(C)C)n1", "note": "(stereo partly drawn) [Example 131, 5-(tert-butyl)-N-((1R)-1-(4-(5-(4-(4-(4-((2,6-dioxopiperidin-3-yl)amino)phenethyl)piperazin-1-yl)phenyl)-1H-pyrazolo[3,4-b]pyridin-3-yl)-2-methylphenyl)ethyl)-1,2,4-oxadiazole-3-carboxamide]", "values": [
      {"measurement": "DC50", "value": 5.9, "unit": "nM"}
    ]},
    {"smiles": "Cc1cc(-c2n[nH]c3ncc(-c4ccc(N5CCN(CC6CCN(c7ccc(N8CCC(=O)NC8=O)c(C)c7)CC6)CC5)cc4)cc23)ccc1[C@@H](C)NC(=O)c1nc(C(C)(C)C)no1", "note": "[Example 98, (R)-3-(tert-butyl)-N-(1-(4-(5-(4-(4-((1-(4-(2,4-dioxotetrahydropyrimidin-1(2H)-yl)-3-methylphenyl)piperidin-4-yl)methyl)piperazin-1-yl)phenyl)-1H-pyrazolo[3,4-b]pyridin-3-yl)-2-methylphenyl)ethyl)-1,2,4-oxadiazole-5-carboxamide]", "values": [
      {"measurement": "DC50", "value": 2.68, "unit": "nM"}
    ]},
    {"smiles": "Cc1c(-c2n[nH]c3ncc(-c4ccc(C5CCN(CCc6ccc(C7CCC(=O)NC7=O)cc6)CC5)cc4)cc23)ccc(CNC(=O)c2nc(C(C)(C)C)no2)c1F", "note": "(centres unmarked) [Example 19, 3-(tert-butyl)-N-(4-(5-(4-(1-(4-(2,6-dioxopiperidin-3-yl)phenethyl)piperidin-4-yl)phenyl)-1H-pyrazolo[3,4-b]pyridin-3-yl)-2-fluoro-3-methylbenzyl)-1,2,4-oxadiazole-5-carboxamide]", "values": [
      {"measurement": "DC50", "value": 16.9, "unit": "nM"},
      {"measurement": "Dmax", "value": 92.8, "unit": "%"}
    ]},
    {"smiles": "Cc1cc(-c2n[nH]c3ncc(-c4ccc(N5CCN(CC6CCN(c7ccc(N8CCC(=O)NC8=O)cc7)CC6)CC5)cc4)cc23)ccc1CNC(=O)c1cnc(C(C)(C)C)s1", "note": "[Example 94, 2-(tert-butyl)-N-(4-(5-(4-(4-((1-(4-(2,4-dioxotetrahydropyrimidin-1(2H)-yl)phenyl)piperidin-4-yl)methyl)piperazin-1-yl)phenyl)-1H-pyrazolo[3,4-b]pyridin-3-yl)-2-methylbenzyl)thiazole-5-carboxamide]", "values": [
      {"measurement": "DC50", "value": 13.1, "unit": "nM"}
    ]},
    {"smiles": "Cc1cc(CCN2CC3CC2CN3c2ccc(-c3cnc4[nH]nc(-c5ccc([C@@H](C)NC(=O)c6noc(C(C)(C)C)n6)c(C)c5)c4c3)nc2)ncc1C1CCC(=O)NC1=O", "note": "(stereo partly drawn) [Example 173, 5-(tert-butyl)-N-((1R)-1-(4-(5-(5-(5-(2-(5-(2,6-dioxopiperidin-3-yl)-4-methylpyridin-2-yl)ethyl)-2,5-diazabicyclo[2.2.1]heptan-2-yl)pyridin-2-yl)-1H-pyrazolo[3,4-b]pyridin-3-yl)-2-methylphenyl)ethyl)-1,2,4-oxadiazole-3-carboxamide]", "values": [
      {"measurement": "DC50", "value": "> 2000", "unit": "nM"}
    ]},
    {"smiles": "Cc1cc(-c2n[nH]c3ncc(-c4cccc(N5CCN(CC6CCN(c7ccc(N8CCC(=O)NC8=O)cc7)CC6)CC5)c4)cc23)ccc1[C@@H](C)NC(=O)c1noc(C(C)(C)C)n1", "note": "[Example 95, (R)-5-(tert-butyl)-N-(1-(4-(5-(3-(4-((1-(4-(2,4-dioxotetrahydropyrimidin-1(2H)-yl)phenyl)piperidin-4-yl)methyl)piperazin-1-yl)phenyl)-1H-pyrazolo[3,4-b]pyridin-3-yl)-2-methylphenyl)ethyl)-1,2,4-oxadiazole-3-carboxamide]", "values": [
      {"measurement": "DC50", "value": 71.4, "unit": "nM"}
    ]},
    {"smiles": "Cc1cc(-c2n[nH]c3ncc(-c4ccc(N5CCN(CC6CCN(c7ccc(N8CCC(=O)NC8=O)c(C)c7)CC6)CC5)cc4)cc23)ccc1[C@@H](C)NC(=O)c1noc(C2(CO)CC2)n1", "note": "[Example 185, (R)—N-(1-(4-(5-(4-(4-((1-(4-(2,4-dioxotetrahydropyrimidin-1(2H)-yl)-3-methylphenyl)piperidin-4-yl)methyl)piperazin-1-yl)phenyl)-1H-pyrazolo[3,4-b]pyridin-3-yl)-2-methylphenyl)ethyl)-5-(1-(hydroxymethyl)cyclopropyl)-1,2,4-oxadiazole-3-carboxamide]", "values": [
      {"measurement": "DC50", "value": 16.2, "unit": "nM"}
    ]},
    {"smiles": "Cc1cc(-c2n[nH]c3ncc(-c4ccc(C5CCN(CC6CCN(c7ccc(N8CCC(=O)NC8=O)cc7)CC6)CC5)nc4)cc23)ccc1[C@@H](C)NC(=O)c1noc(C(C)(C)C)n1", "note": "[Example 71, (R)-5-(tert-butyl)-N-(1-(4-(5-(6-(1-((1-(4-(2,4-dioxotetrahydropyrimidin-1(2H)-yl)phenyl)piperidin-4-yl)methyl)piperidin-4-yl)pyridin-3-yl)-1H-pyrazolo[3,4-b]pyridin-3-yl)-2-methylphenyl)ethyl)-1,2,4-oxadiazole-3-carboxamide]", "values": [
      {"measurement": "DC50", "value": 4.03, "unit": "nM"}
    ]},
    {"smiles": "COc1cc(-c2cnc3[nH]nc(-c4ccc([C@@H](C)NC(=O)c5noc(C(C)(C)C)n5)c(C)c4)c3c2)ccc1N1CCN(CC2CCN(c3ccc(N4CCC(=O)NC4=O)cc3)CC2)CC1", "note": "[Example 120, (R)-5-(tert-butyl)-N-(1-(4-(5-(4-(4-((1-(4-(2,4-dioxotetrahydropyrimidin-1(2H)-yl)phenyl)piperidin-4-yl)methyl)piperazin-1-yl)-3-methoxyphenyl)-1H-pyrazolo[3,4-b]pyridin-3-yl)-2-methylphenyl)ethyl)-1,2,4-oxadiazole-3-carboxamide]", "values": [
      {"measurement": "DC50", "value": 5.82, "unit": "nM"}
    ]},
    {"smiles": "Cc1cc(-c2n[nH]c3ncc(-c4ccc(N5CCN(CCc6ccc(OC7CCC(=O)NC7=O)cc6)CC5)cc4)cc23)ccc1[C@@H](C)NC(=O)c1noc(C(C)(C)C)n1", "note": "(stereo partly drawn) [Example 123, 5-(tert-butyl)-N-((1R)-1-(4-(5-(4-(4-(4-((2,6-dioxopiperidin-3-yl)oxy)phenethyl)piperazin-1-yl)phenyl)-1H-pyrazolo[3,4-b]pyridin-3-yl)-2-methylphenyl)ethyl)-1,2,4-oxadiazole-3-carboxamide]", "values": [
      {"measurement": "DC50", "value": 14.2, "unit": "nM"}
    ]},
    {"smiles": "Cc1cc(-c2n[nH]c3ncc(-c4ccc(N5CCN(CC6CCN(c7ccc(N8CCC(=O)NC8=O)c(C)c7)CC6)CC5)nc4)cc23)ccc1CNC(=O)c1nc(C(C)(C)C)no1", "note": "[Example 228, 3-(tert-butyl)-N-(4-(5-(6-(4-((1-(4-(2,4-dioxotetrahydropyrimidin-1(2H)-yl)-3-methylphenyl)piperidin-4-yl)methyl)piperazin-1-yl)pyridin-3-yl)-1H-pyrazolo[3,4-b]pyridin-3-yl)-2-methylbenzyl)-1,2,4-oxadiazole-5-carboxamide]", "values": [
      {"measurement": "DC50", "value": 2.02, "unit": "nM"}
    ]},
    {"smiles": "Cc1cc(-c2n[nH]c3ncc(-c4ccc(C5(O)CCN(CC6CCN(c7ccc(N8CCC(=O)NC8=O)cc7)CC6)CC5)cn4)cc23)ccc1[C@@H](C)NC(=O)c1nc(C(C)(C)C)no1", "note": "[Example 204, (R)-3-(tert-butyl)-N-(1-(4-(5-(5-(1-((1-(4-(2,4-dioxotetrahydropyrimidin-1(2H)-yl)phenyl)piperidin-4-yl)methyl)-4-hydroxypiperidin-4-yl)pyridin-2-yl)-1H-pyrazolo[3,4-b]pyridin-3-yl)-2-methylphenyl)ethyl)-1,2,4-oxadiazole-5-carboxamide]", "values": [
      {"measurement": "DC50", "value": 2.02, "unit": "nM"}
    ]},
    {"smiles": "Cc1cc(CCN2CCN(c3ccc(-c4cnc5[nH]nc(-c6ccc([C@@H](C)NC(=O)c7noc(C(C)(C)C)n7)c(CO)c6)c5c4)cc3)CC2)ncc1C1CCC(=O)NC1=O", "note": "(stereo partly drawn) [Example 149, 5-(tert-butyl)-N-((1R)-1-(4-(5-(4-(4-(2-(5-(2,6-dioxopiperidin-3-yl)-4-methylpyridin-2-yl)ethyl)piperazin-1-yl)phenyl)-1H-pyrazolo[3,4-b]pyridin-3-yl)-2-(hydroxymethyl)phenyl)ethyl)-1,2,4-oxadiazole-3-carboxamide]", "values": [
      {"measurement": "DC50", "value": 1.6, "unit": "nM"}
    ]},
    {"smiles": "Cc1nc(CCN2CCN(c3ccc(-c4cnc5[nH]nc(-c6ccc([C@@H](C)NC(=O)c7noc(C(C)(C)C)n7)c(CO)c6)c5c4)cc3)CC2)ccc1C1CCC(=O)NC1=O", "note": "(stereo partly drawn) [Example 167, 5-(tert-butyl)-N-((1R)-1-(4-(5-(4-(4-(2-(5-(2,6-dioxopiperidin-3-yl)-6-methylpyridin-2-yl)ethyl)piperazin-1-yl)phenyl)-1H-pyrazolo[3,4-b]pyridin-3-yl)-2-(hydroxymethyl)phenyl)ethyl)-1,2,4-oxadiazole-3-carboxamide]", "values": [
      {"measurement": "DC50", "value": 4.13, "unit": "nM"}
    ]},
    {"smiles": "CC(C)(C)c1noc(C(=O)NCc2ccc(-c3n[nH]c4ncc(-c5ccc(C6CCN(CC7CCN(c8ccc(N9CCC(=O)NC9=O)cc8)CC7)CC6)cc5)cc34)cc2F)n1", "note": "[Example 10, 3-(tert-butyl)-N-(4-(5-(4-(1-((1-(4-(2,4-dioxotetrahydropyrimidin-1(2H)-yl)phenyl)piperidin-4-yl)methyl)piperidin-4-yl)phenyl)-1H-pyrazolo[3,4-b]pyridin-3-yl)-2-fluorobenzyl)-1,2,4-oxadiazole-5-carboxamide]", "values": [
      {"measurement": "DC50", "value": 10.8, "unit": "nM"},
      {"measurement": "Dmax", "value": 97.1, "unit": "%"}
    ]},
    {"smiles": "Cc1cc(-c2n[nH]c3ncc(-c4ccc(N5CCN(C6CC(c7ccc(C8CCC(=O)NC8=O)cc7)C6)CC5)cc4)cc23)ccc1[C@@H](C)NC(=O)c1noc(C(C)(C)C)n1", "note": "(stereo partly drawn) [Example 176, 5-(tert-butyl)-N-((1R)-1-(4-(5-(4-(4-(3-(4-(2,6-dioxopiperidin-3-yl)phenyl)cyclobutyl)piperazin-1-yl)phenyl)-1H-pyrazolo[3,4-b]pyridin-3-yl)-2-methylphenyl)ethyl)-1,2,4-oxadiazole-3-carboxamide formate]", "values": [
      {"measurement": "DC50", "setting": "formate", "value": 1.89, "unit": "nM"}
    ]},
    {"smiles": "Cc1cc(-c2n[nH]c3ncc(-c4ccc(N5CCN(CCc6ccc(C7CCC(=O)NC7=O)cc6)CC5)cc4)cc23)ccc1[C@@H](C)NC(=O)c1cn(C(C)(C)C)nn1", "note": "(stereo partly drawn) [Example 125, 1-(tert-butyl)-N-((1R)-1-(4-(5-(4-(4-(4-(2,6-dioxopiperidin-3-yl)phenethyl)piperazin-1-yl)phenyl)-1H-pyrazolo[3,4-b]pyridin-3-yl)-2-methylphenyl)ethyl)-1H-1,2,3-triazole-4-carboxamide]", "values": [
      {"measurement": "DC50", "value": 15.2, "unit": "nM"}
    ]},
    {"smiles": "Cc1cc(-c2n[nH]c3ncc(-c4ccc(N5CCN(CC6CCN(c7ccc(N8CCC(=O)NC8=O)cc7)CC6)CC5)nc4)cc23)ccc1CNC(=O)c1noc(C(C)(C)C)n1", "note": "[Example 65, 5-(tert-butyl)-N-(4-(5-(6-(4-((1-(4-(2,4-dioxotetrahydropyrimidin-1(2H)-yl)phenyl)piperidin-4-yl)methyl)piperazin-1-yl)pyridin-3-yl)-1H-pyrazolo[3,4-b]pyridin-3-yl)-2-methylbenzyl)-1,2,4-oxadiazole-3-carboxamide]", "values": [
      {"measurement": "DC50", "value": 7.67, "unit": "nM"}
    ]}
  ]
}
